Source: PubChem BioAssay AID2060495 (Molecular Pharmacology Branch, DTP, NCI, 2025)

Test system: 521955-158-R2-J5-PDC complex spheroid viability
Experiment: Anticancer human tumor 521955-158-R2-J5-PDC patient-derived pancreatic carcinoma cell line growth inhibition [GQUAD]
Details: for IC50: curve of first compound; for viability, T/C: stronger effect = lower value
Outline: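 Viability of tumor cells grown as complex spheroids with endothelial and stromal cells, exposed to drug combinations. Top concentration at or near clinical Cmax (else 10 microM), diluted in half-log increments.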

[1] = second compound 0.0316 µM, first compound 0.0316 µM
[2] = second compound 0.0316 µM, first compound 0.1 µM
[3] = second compound 0.0316 µM, first compound 0.316 µM
[4] = second compound 0.0316 µM, first compound 1 µM
[5] = second compound 0.0316 µM, first compound 3.16 µM
[6] = second compound 0.0316 µM, first compound 10 µM
[7] = second compound 0.1 µM, first compound 0.0316 µM
[8] = second compound 0.1 µM, first compound 0.1 µM
[9] = second compound 0.1 µM, first compound 0.316 µM
[10] = second compound 0.1 µM, first compound 1 µM
[11] = second compound 0.1 µM, first compound 3.16 µM
[12] = second compound 0.1 µM, first compound 10 µM
[13] = second compound 0.316 µM, first compound 0.0316 µM
[14] = second compound 0.316 µM, first compound 0.1 µM
[15] = second compound 0.316 µM, first compound 0.316 µM
[16] = second compound 0.316 µM, first compound 1 µM
[17] = second compound 0.316 µM, first compound 3.16 µM
[18] = second compound 0.316 µM, first compound 10 µM
[19] = second compound 1 µM, first compound 0.0316 µM
[20] = second compound 1 µM, first compound 0.1 µM
[21] = second compound 1 µM, first compound 0.316 µM
[22] = second compound 1 µM, first compound 1 µM
[23] = second compound 1 µM, first compound 3.16 µM
[24] = second compound 1 µM, first compound 10 µM
[25] = second compound 3.16 µM, first compound 0.0316 µM
[26] = second compound 3.16 µM, first compound 0.1 µM
[27] = second compound 3.16 µM, first compound 0.316 µM
[28] = second compound 3.16 µM, first compound 1 µM
[29] = second compound 3.16 µM, first compound 3.16 µM
[30] = second compound 3.16 µM, first compound 10 µM
[31] = second compound 10 µM, first compound 0.0316 µM
[32] = second compound 10 µM, first compound 0.1 µM
[33] = second compound 10 µM, first compound 0.316 µM
[34] = second compound 10 µM, first compound 1 µM
[35] = second compound 10 µM, first compound 3.16 µM
[36] = second compound 10 µM, first compound 10 µM
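Note: spheroids exposed to agents for one week before reading.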
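Throughout, for viability, T/C: 100% = DMSO vehicle control viability.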

C#Cc1c(F)ccc2cc(O)cc(-c3ncc4c(N5CC6CCC(C5)N6)nc(OCC56CCCN5CC(F)C6)nc4c3F)c12 (stereo unspecified) + Cc1[nH]c2ccc(F)cc2c1-c1nc2c3cccnc3c3ncccc3c2[nH]1
IC50 (second compound 0.0316 µM): 1.64 µM
IC50 (second compound 0.1 µM): > 10 µM
IC50 (second compound 0.316 µM): 3.5 µM
IC50 (second compound 1 µM): 7.53 µM
IC50 (second compound 3.16 µM): 4.29 µM
IC50 (second compound 10 µM): 1.04 µM
viability, T/C [1]: 79.8%
viability, T/C [2]: 68.6%
viability, T/C [3]: 67.3%
viability, T/C [4]: 40.5%
viability, T/C [5]: 57%
viability, T/C [6]: 36.3%
viability, T/C [7]: 82.2%
viability, T/C [8]: 81%
viability, T/C [9]: 64.4%
viability, T/C [10]: 45.1%
viability, T/C [11]: 58.3%
viability, T/C [12]: 46.4%
viability, T/C [13]: 74.9%
viability, T/C [14]: 67.4%
viability, T/C [15]: 53%
viability, T/C [16]: 61%
viability, T/C [17]: 54%
viability, T/C [18]: 42.7%
viability, T/C [19]: 58.9%
viability, T/C [20]: 72.2%
viability, T/C [21]: 68.2%
viability, T/C [22]: 57.5%
viability, T/C [23]: 59.1%
viability, T/C [24]: 47.4%
viability, T/C [25]: 54.1%
viability, T/C [26]: 58.5%
viability, T/C [27]: 59.5%
viability, T/C [28]: 50%
viability, T/C [29]: 62.7%
viability, T/C [30]: 30.9%
viability, T/C [31]: 53.3%
viability, T/C [32]: 55.4%
viability, T/C [33]: 60.6%
viability, T/C [34]: 47.4%
viability, T/C [35]: 39.4%
viability, T/C [36]: 26.6%

CC(=O)O[C@H]1C(=O)[C@@]2(C)[C@H]([C@H](OC(=O)c3ccccc3)[C@]3(O)C[C@H](OC(=O)[C@H](O)[C@@H](NC(=O)c4ccccc4)c4ccccc4)C(C)=C1C3(C)C)[C@]1(OC(C)=O)CO[C@@H]1C[C@@H]2O + Cc1[nH]c2ccc(F)cc2c1-c1nc2c3cccnc3c3ncccc3c2[nH]1
IC50 (second compound 0.0316 µM): < 0.0316 µM
IC50 (second compound 0.1 µM): < 0.0316 µM
IC50 (second compound 0.316 µM): < 0.0316 µM
IC50 (second compound 1 µM): < 0.0316 µM
IC50 (second compound 3.16 µM): < 0.0316 µM
IC50 (second compound 10 µM): < 0.0316 µM
viability, T/C [1]: 46.1%
viability, T/C [2]: 34.1%
viability, T/C [3]: 31%
viability, T/C [4]: 30.8%
viability, T/C [5]: 30.8%
viability, T/C [6]: 25.6%
viability, T/C [7]: 49%
viability, T/C [8]: 43.9%
viability, T/C [9]: 39%
viability, T/C [10]: 31.2%
viability, T/C [11]: 35.7%
viability, T/C [12]: 29.9%
viability, T/C [13]: 47.6%
viability, T/C [14]: 37.5%
viability, T/C [15]: 31.4%
viability, T/C [16]: 27.5%
viability, T/C [17]: 32.1%
viability, T/C [18]: 24.2%
viability, T/C [19]: 43.6%
viability, T/C [20]: 41.5%
viability, T/C [21]: 43.4%
viability, T/C [22]: 31.5%
viability, T/C [23]: 19.8%
viability, T/C [24]: 33.5%
viability, T/C [25]: 38.7%
viability, T/C [26]: 36.7%
viability, T/C [27]: 30.6%
viability, T/C [28]: 32.5%
viability, T/C [29]: 34.9%
viability, T/C [30]: 30.2%
viability, T/C [31]: 41.3%
viability, T/C [32]: 41.9%
viability, T/C [33]: 32.8%
viability, T/C [34]: 40.2%
viability, T/C [35]: 37.7%
viability, T/C [36]: 39%

CCCS(=O)(=O)Nc1ccc(F)c(C(=O)c2c[nH]c3ncc(-c4ccc(Cl)cc4)cc23)c1F + Cc1[nH]c2ccc(F)cc2c1-c1nc2c3cccnc3c3ncccc3c2[nH]1
IC50 (second compound 0.0316 µM): > 10 µM
IC50 (second compound 0.1 µM): > 10 µM
IC50 (second compound 0.316 µM): > 10 µM
IC50 (second compound 1 µM): > 10 µM
IC50 (second compound 3.16 µM): > 10 µM
IC50 (second compound 10 µM): > 10 µM
viability, T/C [1]: 103%
viability, T/C [2]: 95.9%
viability, T/C [3]: 79.8%
viability, T/C [4]: 105%
viability, T/C [5]: 198%
viability, T/C [6]: 112%
viability, T/C [7]: 104%
viability, T/C [8]: 86%
viability, T/C [9]: 72.1%
viability, T/C [10]: 97.4%
viability, T/C [11]: 226%
viability, T/C [12]: 96.9%
viability, T/C [13]: 97.2%
viability, T/C [14]: 95.5%
viability, T/C [15]: 78.6%
viability, T/C [16]: 101%
viability, T/C [17]: 226%
viability, T/C [18]: 105%
viability, T/C [19]: 99.9%
viability, T/C [20]: 88.6%
viability, T/C [21]: 78.1%
viability, T/C [22]: 102%
viability, T/C [23]: 272%
viability, T/C [24]: 95.2%
viability, T/C [25]: 92.3%
viability, T/C [26]: 76%
viability, T/C [27]: 65%
viability, T/C [28]: 220%
viability, T/C [29]: 265%
viability, T/C [30]: 99.9%
viability, T/C [31]: 99.8%
viability, T/C [32]: 84.9%
viability, T/C [33]: 64.9%
viability, T/C [34]: 173%
viability, T/C [35]: 258%
viability, T/C [36]: 84.6%
